One compound from publication PMC8835499, “Challenging Approach to the Development of Novel Estrogen Receptor Modulators Based on the Chemical Properties of Guaiazulene” (International Journal of Molecular Sciences, 2022) can be followed below.

The target in the assay is T1, estrogen receptor α (ERα) (Homo sapiens, UniProt P03372).
T1 construct: gene ESR1; ERα LBD (human recombinant ERα)
T1 sequence (P03372 311-547 limits assumed): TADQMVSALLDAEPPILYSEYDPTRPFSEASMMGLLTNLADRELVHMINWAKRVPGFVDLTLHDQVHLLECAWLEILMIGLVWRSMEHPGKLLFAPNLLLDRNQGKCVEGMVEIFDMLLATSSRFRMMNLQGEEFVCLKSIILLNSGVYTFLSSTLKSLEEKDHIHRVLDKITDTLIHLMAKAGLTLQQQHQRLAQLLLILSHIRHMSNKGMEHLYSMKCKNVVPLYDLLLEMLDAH
Kind of assay: competitive radioligand binding assay with [3H][…]β-estradiol (nitrocellulose filtration).

The compound `Cc1cc(C=C(c2ccc(O)cc2)c2ccc(O)cc2)c2c(C)ccc(C(C)C)cc1-2` [Az-01, 4,4′-(2-(5-Isopropyl-3,8-dimethylazulen-1-yl)ethene-1,1-diyl)diphenol] showed an IC50 of 1.22 nM. This counts as single-digit nanomolar.
